From publication PMC8973347, “Discovery of novel sulphonamide hybrids that inhibit LSD1 against bladder cancer cells” (Journal of Enzyme Inhibition and Medicinal Chemistry, 2022)
Where two headings read alike, the source gives them in different places.

Experiments:
[1] = tested on: NAMPT; set-up: method as in PMID 30992165; details: cited from earlier work
[2] = tested on: Hela; set-up: method as in PMID 30992165; details: cited from earlier work
[3] = tested on: H1975; set-up: method as in PMID 30992165; details: cited from earlier work
[4] = tested on: DU145; set-up: method as in PMID 30992165; details: cited from earlier work
[5] = tested on: PC-3 cells; set-up: method as in PMID 28872607; details: read-out: IC50 against PC-3 cells; cited from earlier work
[6] = tested on: A2780; set-up: method as in PMID 31181480; details: read-out: IC50 against A2780; cited from earlier work
[7] = tested on: HCT-116; set-up: method as in PMID 31181480; details: read-out: IC50 against HCT-116; cited from earlier work
[8] = tested on: Hela; set-up: method as in PMID 31181480; details: read-out: IC50 against Hela; cited from earlier work
[9] = tested on: RKO; set-up: method as in PMID 31181480; details: read-out: IC50 against RKO; cited from earlier work
[10] = molecular target: T1, MAO-B (Homo sapiens, UniProt P27338); assay: MAO-A/B biochemical kit, MAO-B
T1 construct: purchased Promega
T1 sequence (P27338 1-520): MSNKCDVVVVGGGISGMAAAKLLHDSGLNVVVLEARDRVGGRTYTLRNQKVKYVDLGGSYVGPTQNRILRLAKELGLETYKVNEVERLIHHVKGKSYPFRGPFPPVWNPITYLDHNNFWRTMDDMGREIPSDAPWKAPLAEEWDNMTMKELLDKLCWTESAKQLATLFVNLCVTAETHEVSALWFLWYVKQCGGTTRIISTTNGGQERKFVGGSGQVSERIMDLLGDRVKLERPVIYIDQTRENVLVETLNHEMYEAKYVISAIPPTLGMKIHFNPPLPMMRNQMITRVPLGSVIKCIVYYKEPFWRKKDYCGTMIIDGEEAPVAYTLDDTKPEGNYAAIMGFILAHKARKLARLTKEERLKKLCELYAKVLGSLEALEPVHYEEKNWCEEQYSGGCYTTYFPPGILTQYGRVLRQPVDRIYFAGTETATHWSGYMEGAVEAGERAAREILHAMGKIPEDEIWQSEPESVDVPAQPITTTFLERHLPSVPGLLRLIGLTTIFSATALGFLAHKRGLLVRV
Excerpt: (§1) LSD1 inhibitor screening assay kit was purchased to evaluate for the enzyme inhibition activity of all synthetic compounds (Cayman Chemical, Fort Annapolis, MI). The MAO-A/B biochemical kit was purchased to explore the inhibitory activity against MAO-A and MAO-B (Promega, Madison, WI). […] The signal of each well was read by a GloMax Explorer (Beijing Yuanpinghao Biotechnology Co., Ltd, Beijing, China).

[11] = molecular target: LSD1 (Homo sapiens, UniProt O60341); assay: LSD1 inhibitor screening assay kit
Excerpt: as §1

[12] = molecular target: T2, MAO-A (Homo sapiens, UniProt P21397); assay: MAO-A/B biochemical kit, MAO-A
T2 construct: purchased Promega
T2 sequence (P21397 1-527): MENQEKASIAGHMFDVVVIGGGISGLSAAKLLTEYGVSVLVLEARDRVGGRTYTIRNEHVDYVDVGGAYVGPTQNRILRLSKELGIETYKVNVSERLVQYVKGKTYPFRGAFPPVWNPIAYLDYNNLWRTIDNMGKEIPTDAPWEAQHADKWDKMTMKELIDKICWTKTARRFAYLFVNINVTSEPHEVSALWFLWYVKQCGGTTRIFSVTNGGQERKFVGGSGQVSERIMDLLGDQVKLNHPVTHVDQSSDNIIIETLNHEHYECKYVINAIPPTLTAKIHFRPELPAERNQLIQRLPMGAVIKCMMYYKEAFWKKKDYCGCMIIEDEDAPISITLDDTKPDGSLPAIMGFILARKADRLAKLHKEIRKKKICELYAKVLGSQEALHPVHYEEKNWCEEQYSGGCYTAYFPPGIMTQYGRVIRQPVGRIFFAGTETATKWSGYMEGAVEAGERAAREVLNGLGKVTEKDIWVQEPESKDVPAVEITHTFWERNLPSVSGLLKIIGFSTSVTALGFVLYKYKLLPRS
Excerpt: as §1

| SMILES | IC50 [10] | IC50 [11] | IC50 [12] | also measured |
| --- | --- | --- | --- | --- |
| Cc1ccccc1NS(=O)(=O)c1cccc(CCCCCCNC(=O)/C=C/c2cccnc2)c1 [Compound 4] |  |  |  | IC50 [1]: 0.00508 µM; antiproliferative activity against Hela cells [2]: single-digit nanomolar; antiproliferative activity against H1975 cells [3]: single-digit nanomolar; antiproliferative activity against DU145 cells [4]: single-digit nanomolar |
| Cc1ccc(S(=O)(=O)NCc2cn(Cc3cccc(Oc4ccccc4)c3)nn2)cc1 [Compound 5] |  |  |  | IC50 [5]: 4.08 µM |
| COc1cccc(Nc2ccnc3cc(OCCCc4ccccc4)ccc23)c1 [Compound 8] |  |  |  | IC50 [6]: 3.46 µM; IC50 [7]: 2.56 µM; IC50 [8]: 2.71 µM; IC50 [9]: 3.67 µM |
| COc1ccc(S(=O)(=O)Nc2cccc3cccnc23)cc1OC [Compound J1, 3,4-Dimethoxy-N-(quinolin-8-yl)benzenesulphonamide] | > 120 µM | 33.8 ± 2.04 µM | > 120 µM |  |
| COc1ccc(S(=O)(=O)Nc2cccc3cccnc23)cc1 [Compound J2, 4-Methoxy-N-(quinolin-8-yl)benzenesulphonamide] | > 120 µM | 45.6 ± 1.12 µM | > 120 µM |  |
| CC(C)(C)c1ccc(S(=O)(=O)Nc2cccc3cccnc23)cc1 [Compound J3, 4-(Tert-butyl)-N-(quinolin-8-yl)benzenesulphonamide] | > 120 µM | 61.9 ± 2.46 µM | > 120 µM |  |
| O=S(=O)(Nc1cccc2cccnc12)c1ccccc1 [Compound J4, N-(quinolin-8-yl)benzenesulphonamide] | > 120 µM | 82.5 ± 3.38 µM | > 120 µM |  |
| Cc1ccc(S(=O)(=O)Nc2cccc3cccnc23)cc1 [Compound J5, 4-Methyl-N-(quinolin-8-yl)benzenesulphonamide] | > 120 µM | 74.5 ± 2.67 µM | > 120 µM |  |
| O=S(=O)(Nc1cccc2cccnc12)c1ccc(Br)cc1 [Compound J6, 4-Bromo-N-(quinolin-8-yl)benzenesulphonamide] | > 120 µM | 61.8 ± 5.64 µM | > 120 µM | melting point: 192 to 194 °C |
| COc1cc(NS(=O)(=O)c2cccc3cccnc23)cc(OC)c1OC [Compound J7, N-(3,4,5-trimethoxyphenyl)quinoline-8-sulphonamide] | > 120 µM | 11.6 ± 1.92 µM | > 120 µM |  |
| COc1cc(N(CCBr)S(=O)(=O)c2cccc3cccnc23)cc(OC)c1OC [Compound K1, N-(2-bromoethyl)-N-(3,4,5-trimethoxyphenyl)quinoline-8-sulphonamide] | > 120 µM | 14.8 ± 2.04 µM | > 120 µM | melting point: 158 to 160 °C |
| COc1cc(N(CCCBr)S(=O)(=O)c2cccc3cccnc23)cc(OC)c1OC [Compound K2, N-(3-bromopropyl)-N-(3,4,5-trimethoxyphenyl)quinoline-8-sulphonamide] | > 120 µM | 9.63 ± 1.26 µM | > 120 µM |  |
| COc1cc(N(CCCCBr)S(=O)(=O)c2cccc3cccnc23)cc(OC)c1OC [Compound K3, N-(4-bromobutyl)-N-(3,4,5-trimethoxyphenyl)quinoline-8-sulphonamide] | > 120 µM | 6.32 ± 0.77 µM | > 120 µM | melting point: 103 to 104 °C |
| COc1cc(N(CCSC(=S)N2CCN(C(=O)OC(C)(C)C)CC2)S(=O)(=O)c2cccc3cccnc23)cc(OC)c1OC [Compound L1, Tert-butyl-4-(((2-(N-(3,4,5-trimethoxyphenyl)quinoline-8-sulfonamido)ethyl)thio)carbonothioyl)piperazine-1-carboxylate] | > 120 µM | 2.73 ± 0.29 µM | > 120 µM | melting point: 121 to 123 °C |
| COc1cc(N(CCCSC(=S)N2CCN(C(=O)OC(C)(C)C)CC2)S(=O)(=O)c2cccc3cccnc23)cc(OC)c1OC [Compound L2, Tert-butyl-4-(((3-(N-(3,4,5-trimethoxyphenyl)quinoline-8-sulfonamido)propyl)thio)carbonothioyl)piperazine-1-carboxylate] | > 120 µM | 1.39 ± 0.14 µM | > 120 µM | melting point: 130 to 132 °C |
| COc1cc(N(CCSC(=S)N2CCN(CCO)CC2)S(=O)(=O)c2cccc3cccnc23)cc(OC)c1OC [Compound L3, 2-(N-(3,4,5-trimethoxyphenyl)quinoline-8-sulfonamido)ethyl-4–(2-hydroxyethyl)piperazine-1-carbodithioate] | > 120 µM |  | > 120 µM | IC50 ([11]; read-out: IC50 (μM) LSD1): 1.85 ± 0.07 µM |
| COc1cc(N(CCCSC(=S)N2CCN(CCO)CC2)S(=O)(=O)c2cccc3cccnc23)cc(OC)c1OC [Compound L4, 3-(N-(3,4,5-trimethoxyphenyl)quinoline-8-sulfonamido)propyl-4–(2-hydroxyethyl)piperazine-1-carbodithioate] | > 120 µM |  | > 120 µM | IC50 ([11]; read-out: IC50 (μM) LSD1): 0.67 ± 0.1 µM |
| CCN1CCN(C(=S)SCCCCN(c2cc(OC)c(OC)c(OC)c2)S(=O)(=O)c2cccc3cccnc23)CC1 [Compound L5, 4-(N-(3,4,5-trimethoxyphenyl)quinoline-8-sulfonamido)butyl-4-ethylpiperazine-1-carbodithioate] | > 120 µM |  | > 120 µM | LSD1 activity loss, hydroxyethyl group replaced with ethyl group ([11]; compound L8 versus L5): over 80 fold; IC50 ([11]; read-out: IC50 (μM) LSD1): 4.92 ± 0.13 µM |
| COc1cc(N(CCCCSC(=S)N2CCN(C(=O)OC(C)(C)C)CC2)S(=O)(=O)c2cccc3cccnc23)cc(OC)c1OC [Compound L6, Tert-butyl-4-(((4-(N-(3,4,5-trimethoxyphenyl)quinoline-8-sulfonamido)butyl)thio)carbonothioyl)piperazine-1-carboxylate] | > 120 µM | 0.23 ± 0.05 µM | > 120 µM | melting point: 98 to 100 °C |
| COc1cc(N(CCCCSC(=S)N2CCN(C)CC2)S(=O)(=O)c2cccc3cccnc23)cc(OC)c1OC [Compound L7, 4-(N-(3,4,5-trimethoxyphenyl)quinoline-8-sulfonamido)butyl-4-methylpiperazine-1-carbodithioate] | > 120 µM |  | > 120 µM | IC50 ([11]; read-out: IC50 (μM) LSD1): 0.73 ± 0.08 µM |
| N[C@H]1CC[C@H](N[C@@H]2C[C@H]2c2ccccc2)CC1 [ORY-1001, reference compound] |  |  | > 120 µM |  |
